Laboratory results as given in patent US12109292B2, “Bioflavonoid compositions and their use” (Oraldent Limited, priority 2018, dated 2024).

Tests used:
Streptococcus mutans = assay: Inhibition zone assay on agar plate; assay type: cell-based; details: 48 h at 37° C. anaerobe
Experimental: The antibacterial activity of ε-polylysine was semi-quantitatively assessed in a inhibition zone assay. 0.1 mL of a confluent Streptococcus mutans culture was spread over a Brain Heart Infusion (BHI) agar plate. Filter platelets (5 mm diameter) soaked with 0.01 mL substance were applied on plate. Plates were incubated 48 h at 37° C. under anaerobe conditions. The diameter of outer limit of the inhibition zones were measured, the diameter of the platelet deduced and the half result considered the radius of inhibition rings. Concentrations were tested in triplicate and their results averaged.

S. mutans = assay: Short exposure assay (bactericidal effect), colony count; assay type: cell-based, Streptococcus mutans; details: 0.05%; 10 minutes; 5000 CFU inoculum
Experimental: The short-term antibacterial activity of Citrox was semi-quantitatively assessed in a short exposure assay. A S. mutans culture, diluted in order to contain 5000 Colony Forming Units, was incubated for 10 minutes in presence of the antibacterial substance and extemporarily plated onto a BHI agar plate. Plates were incubated at 37° C. under anaerobe conditions and colony counted. […] Citrox 0.5% reduced the count of CFU to the half (<3000 CFU).

Escherichia coli [1] = assay: Pre-treatment of high binding plates with Citrox/ε-polylysine, then Escherichia coli growth inhibition (turbidity); assay type: cell-based
Experimental: High Binding plates were pre-treated with 0.1 mL of pure Citrox/ε-Polylysine solutions incubated 60′ at room temperature. The concentrations of Citrox range from 0.06% to 4%. The ε-Polylysine concentrations range from 30 mg/L to 120 mg/L. The wells have been emptied and rinsed with 0.2 mL bi-distilled water. 0.2 mL of a diluted Escherichia coli culture (turbidity: 5 m OD at 600 nm) were given to the pre-treated wells and incubated for 3 hours at 37° C. Turbidity were measured at 600 nm and percentage of growth inhibition in comparison to untreated well calculated (FIG. 1).

Escherichia coli [2] = assay: Direct exposure of Escherichia coli mini cultures, minimal inhibitory concentration by turbidity; assay type: cell-based; details: E. coli, 5 hours at 37° C., extrapolated from FIG. 2
Experimental: Growth inhibition was monitored by measuring turbidity of mini cultures after 5 hours of aerobe incubation at 37° C. under agitation. Solutions were diluted to the half in cascade.

| Compound | Radius of inhibition rings (Streptococcus mutans; 0.1%) | Radius of inhibition rings (Streptococcus mutans; 1%) | colony formation after short exposure (S. mutans) | highest ε-polylysine concentration that does not affect significantly the antibacterial effect of Citrox pretreatment (Escherichia coli [1]) | effect of plate-absorbed substance on growth of bacteria in suspension (Escherichia coli [1]; high binding plate, substance absorbed onto solid surface) | Minimal inhibitory concentration (MIC) (Escherichia coli [2]) | Radius of inhibition rings (Streptococcus mutans; 10 mg/L) | Radius of inhibition rings (Streptococcus mutans; 100 mg/L) | Radius of inhibition rings (Streptococcus mutans; 1000 mg/L) |
| --- | --- | --- | --- | --- | --- | --- | --- | --- | --- |
| OO [Water peroxide, reference compound] | 1.5 mm | 5 mm | complete absence of colony formation | – | – | – | – | – | – |
| ε-Polylysine | – | – | – | 30 mg/L | does not affect the growth of bacteria in suspension | 4 mg/L | 0.5 mm | 2.5 mm | 6.5 mm |
